Data taken from publication PMC11645656, “MRGPRX4 mediates phospho-drug associated pruritus in a humanized mouse model” (Science translational medicine, 2024).
Values joined by “and” are separate entries in the source; they are usually repeats but may differ in a detail not shown here. Identical values can stand only once.

Experiments:
MRGPRX4 S83L (L83) = MRGPRX4 S83L (L83) (Homo sapiens, UniProt Q96LA9); assay: Calcium mobilization assay (FLIPR), S83L MRGPRX4 transiently expressed in HEK293T cells; type: cell-based; set-up: expressed in transfected cells; host or cells: HEK293T, transient
Chain of MRGPRX4 S83L (L83) (Q96LA9 whole entry, stated change not applied): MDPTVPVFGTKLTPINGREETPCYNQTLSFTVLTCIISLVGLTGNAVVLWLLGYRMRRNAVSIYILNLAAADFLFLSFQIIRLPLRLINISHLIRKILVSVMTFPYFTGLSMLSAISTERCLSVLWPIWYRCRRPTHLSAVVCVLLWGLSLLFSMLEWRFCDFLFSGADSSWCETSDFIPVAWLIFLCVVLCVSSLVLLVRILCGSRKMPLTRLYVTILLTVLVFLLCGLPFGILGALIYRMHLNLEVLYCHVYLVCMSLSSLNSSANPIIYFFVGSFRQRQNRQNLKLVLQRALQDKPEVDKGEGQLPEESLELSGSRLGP
Source text: (§1) Fig. 4. […] Hydrogen bond is shown as cyan dashed lines. […] Data are from three independent experiments, performed in triplicate. (E) pEC50 plots of various agonists toward S83- and L83-MRGPRX4 through calcium mobilization assay. […] Each data point represents an independent experiment, performed in triplicate. The extra sum-of-square F test was used to examine the difference in EC50 values. One-sided t-test was used for nateglinide. *p< 0.05, **p< 0.01 and ***p< 0.001. ns = no statistical significance. Both (D) and (E) are reported as the mean ± SEM. N.D.= no detectable response ≤ 100 μM.
(§2) HEK293 cells and MRGPRX4 stably expressed HEK293 cells were seeded in 100 μl culture media on 96-well plates at a density of 40,000 cells per well and incubated overnight. The next day, the media were replaced with a dye-loading solution from the FLIPR Calcium 5 assay kit (Molecular Devices), diluted in Hank's Balanced Salt Solution (HBSS) with 20 mM HEPES, pH 7.4. After 1 h of incubation at 37°C, cells were allowed to recover for 10 min in the dark at room temperature prior to performing intracellular calcium mobilization assay in a Flexstation-3 instrument with SoftMax®Pro 7.1 software (Molecular Devices). Serial concentrations of tested drugs were prepared in HBSS/HEPES solution at 3X concentration. […] Compounds were tested in triplicates and the signals were averaged. Responses were determined by subtracting the minimum signal (at the baseline before adding the drug) from the maximum signal (obtained after drug stimulation). Four-parameter logistic (4PL) curve fit was used to plot the dose-response curves. […] Both dose-response curve fitting and EC50s calculation are computed with GraphPad Prism software (version: 6.o or above).
(§3) To generate murine Mrgprs expressing cells, HEK293T cells (ATCC) were seeded on poly-D-lysine coated 96 well plate at 25,000 cells per well one day prior to transfection. HEK293T cells were transiently co-transfected with the mammalian expression plasmids carrying cDNA encoding the murine Mrgpr genes and plasmid inserted with cDNA encoding murine α-subunit of the heterotrimeric G15 protein (Gα15) in triplicates using Lipofectamine LTX reagents (Thermo Scientific). To generate WT, S83L, and alanine mutant MRGPRX4-expressing cells, HEK293T cells were seeded on poly-D-lysine coated 384 well plate at 12,000 cells per well one day prior to transfection. Mammalian expression plasmids pLX304 (vector from Addgene) carrying different MRGPRX4 coding sequences were transiently transfected into HEK293T cells in triplicates with Lipofectamine LTX reagents (Thermo Scientific). Intracellular calcium mobilization assays were performed after one day of transfection. Murine Mrgprs tested include Mrgpra1, Mrgpra2a, Mrgpra2b, Mrgpra3, Mrgpra4, Mrgpra6, Mrgpra9, Mrgpra10, Mrgpra11, Mrgpra12, Mrgpra14, Mrgprb5, Mrgprb6, Mrgprb10, Mrgprb11, and Mrgprc11. WT and mutant MRGPRX4 constructs tested include WT, S83L, R82A, R86A, R95A, W158A, Y250A, and Y254A.

MRGPRX4 WT (S83) = MRGPRX4 WT (S83) (Homo sapiens, UniProt Q96LA9, L83S); assay: Calcium mobilization assay (FLIPR), WT (S83) MRGPRX4 transiently expressed in HEK293T cells; type: cell-based; set-up: expressed in transfected cells; host or cells: HEK293T, transient; details: for fig. S8 response (normalized), concentration-response: WT, single replicate; for Potency at S83- vs L83-MRGPRX4: calcium mobilization, compared with S83L (A17)
Chain of MRGPRX4 WT (S83) (Q96LA9 whole entry L83S): as the sequence (Q96LA9 whole entry, stated change not applied) above, with L83S counted along it
Source text: as §1, §2, §3

| EC50 (MRGPRX4 S83L (L83); Fig. 4E, unit not in the head, taken from Concentration (M) of the sheet and pEC50 [M] of Fig. 4E, read-out: EC50s (each well represents individual experiment)) | EC50 (MRGPRX4 WT (S83); S83-MRGPRX4, Fig. 4E, read-out: pEC50 (converted)) | fig. S8 response (normalized), concentration-response (MRGPRX4 WT (S83); 1.52416e-8 M) | fig. S8 response (normalized), concentration-response (MRGPRX4 WT (S83); 4.11523e-7 M) | fig. S8 response (normalized), concentration-response (MRGPRX4 WT (S83); 1.23457e-6 M) | fig. S8 response (normalized), concentration-response (MRGPRX4 S83L (L83); 2e-5 M, single replicate) | fig. S8 response (normalized), concentration-response (MRGPRX4 WT (S83); 1.95e-8 M) | fig. S8 response (normalized), concentration-response (MRGPRX4 WT (S83); 3.91e-8 M) | Structure (SMILES) | Potency at S83- vs L83-MRGPRX4 (MRGPRX4 WT (S83)) |
| --- | --- | --- | --- | --- | --- | --- | --- | --- | --- |
| 1.04e-06 M and 7.61e-07 M and 9.29e-07 M | > 100000 nM | 11.8843 | 16.3409 | 15.4027 |  |  |  | CC(C)[C@H]1CC[C@H](C(=O)N[C@H](Cc2ccccc2)C(=O)O)CC1 [Nateglinide] | the L83 allele, as previously reported, exhibited greater potency and efficacy |
|  |  |  |  |  | 87.5629 | 6.035 | 8.843 | C[C@H](CCC(=O)O)[C@H]1CC[C@H]2[C@@H]3CC[C@@H]4C[C@H](O)CC[C@]4(C)[C@H]3C[C@H](O)[C@]12C [Deoxycholic Acid] | equal potency |
